The values below come from patent publication US10995090B2, “Substituted dihydrobenzofuran glycosidase inhibitors” (Asceneuron SA, priority 2016, dated 2021).

In the test the target is His-Tagged hOGA (Homo sapiens (Human), UniProt O60502). The test is described as follows: Human O-GlcNAcase enzyme inhibition assay. It counts as biochemical. Particulars: FL-GlcNAc substrate, 60 min at room temperature, pH 6.5; read-out: OGA IC50. The method, then: Example B01: Human O-GlcNAcase Enzyme Inhibition Assay
5 μl of the appropriate concentration of a solution of inhibitor in Mcllvaine's Buffer (pH 6.5) in 2% DMSO (for a dose response curve calculation) is added into each well of a 384-well plate (Greiner, 781900). Then, 20 nM of His-Tagged hOGA and 10 μM of FL-GlcNAc (Fluorescein mono-beta-D-(2-deoxy-2-N-acetyl) glucopyranoside; Marker Gene Technologies Inc, M1485) were added to the 384-well plate for a final volume of 20 μl. After incubation for 60 min at room temperature, the reaction was terminated by the addition of 10 μL of stop buffer (200 mM glycine, pH 10.75).

His-Tagged hOGA, sequence (O60502 whole entry): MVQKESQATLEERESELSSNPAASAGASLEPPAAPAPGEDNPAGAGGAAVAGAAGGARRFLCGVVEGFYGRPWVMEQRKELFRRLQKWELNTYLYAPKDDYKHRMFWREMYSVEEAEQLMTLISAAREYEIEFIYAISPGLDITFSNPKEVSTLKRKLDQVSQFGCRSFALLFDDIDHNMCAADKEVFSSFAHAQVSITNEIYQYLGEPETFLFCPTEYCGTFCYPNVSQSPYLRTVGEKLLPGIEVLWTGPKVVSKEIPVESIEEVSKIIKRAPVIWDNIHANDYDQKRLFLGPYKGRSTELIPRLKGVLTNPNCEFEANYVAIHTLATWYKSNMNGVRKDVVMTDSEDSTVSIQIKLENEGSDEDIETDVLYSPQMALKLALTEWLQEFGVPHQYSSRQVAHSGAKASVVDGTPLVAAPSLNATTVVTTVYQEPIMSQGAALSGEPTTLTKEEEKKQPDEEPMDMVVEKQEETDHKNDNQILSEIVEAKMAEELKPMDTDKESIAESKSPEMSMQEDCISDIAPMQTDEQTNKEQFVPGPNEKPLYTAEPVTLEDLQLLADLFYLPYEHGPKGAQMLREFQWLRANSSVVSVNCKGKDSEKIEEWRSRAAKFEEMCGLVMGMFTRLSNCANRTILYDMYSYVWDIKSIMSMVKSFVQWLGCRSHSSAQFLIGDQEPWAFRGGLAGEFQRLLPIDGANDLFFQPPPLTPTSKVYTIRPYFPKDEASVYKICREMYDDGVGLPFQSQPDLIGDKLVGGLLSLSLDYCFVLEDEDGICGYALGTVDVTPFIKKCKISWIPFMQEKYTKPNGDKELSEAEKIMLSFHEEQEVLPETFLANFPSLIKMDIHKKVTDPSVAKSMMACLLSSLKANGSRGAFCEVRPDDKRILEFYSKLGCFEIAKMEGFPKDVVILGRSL

A word on the IC50: it is the point on the concentration scale where inhibition reaches its midpoint. For the molecule `CC(=O)Nc1nnc(N2CCN(C(C)c3ccc4c(c3)OC(C)C4)CC2)s1` (racemic) [Example 1, N-(5-(4-(1-(2-methyl-2,3-dihydrobenzofuran-6-yl)ethyl)piperazin-1-yl)-1,3,4-thiadiazol-2-yl)acetamide], the IC50 is below 50 nM.

As for `CC1Cc2ccc(C(C)N3CCN(c4ncc5c(n4)CCNC5=O)CC3)cc2O1` (racemic) [Example 2, 2-(4-(1-(2-methyl-2,3-dihydrobenzofuran-6-yl)ethyl)piperazin-1-yl)-7,8-dihydropyrido[4,3-d]pyrimidin-5(6H)-one], the IC50 was below 50 nM.

`CC1Cc2ccc(C(C)N3CCN(c4ncc(S(C)(=N)=O)cn4)CC3)cc2O1` (racemic) [Example 3, Imino(methyl)(2-(4-(1-(2-methyl-2,3-dihydrobenzofuran-6-yl)ethyl)piperazin-1-yl)pyrimidin-5-yl)-λ^6-sulfanone]: the IC50 was below 50 nM.

With `CC(=O)Nc1nnc(N2CCN(C(C)c3ccc4c(c3)OC(C)(C)C4)CC2)s1` (racemic) [Example 4, N-(5-(4-(1-(2,2-dimethyl-2,3-dihydrobenzofuran-6-yl)ethyl)piperazin-1-yl)-1,3,4-thiadiazol-2-yl)acetamide], the concentration for half-maximal inhibition (IC50) lay in the range of 1000 to 10000 nM.

In the case of `CC(c1ccc2c(c1)OC(C)(C)C2)N1CCN(c2ncc(S(C)(=N)=O)cn2)CC1` (racemic) [Example 5, (2-(4-(1-(2,2-dimethyl-2,3-dihydrobenzofuran-6-yl)ethyl)piperazin-1-yl)pyrimidin-5-yl)(imino)(methyl)-λ^6-sulfanone], the IC50 is 1000 to 10000 nM.

Take `CC(c1ccc2c(c1)OC(C)(C)C2)N1CCN(c2ncc3c(n2)CCNC3=O)CC1` (racemic) [Example 6, 2-(4-(1-(2,2-dimethyl-2,3-dihydrobenzofuran-6-yl)ethyl)piperazin-1-yl)-7,8-dihydropyrido[4,3-d]pyrimidin-5(6H)-one]: the half-inhibitory concentration (IC50) is 1000 to 10000 nM.

As to `CC1Cc2ccc(C(C)N3CCN(c4ccc(S(C)(=O)=O)cc4)CC3)cc2O1` (racemic) [Example 7, 1-(1-(2-methyl-2,3-dihydrobenzofuran-6-yl)ethyl)-4-(4-(methylsulfonyl)phenyl)piperazine], the IC50 lay within 50 to 200 nM.

For the molecule `CC(=O)Nc1nnc(N2CCN(C(C)c3cnc4c(c3)OC(C)C4)CC2)s1` (racemic) [Example 8, N-(5-(4-(1-(2-methyl-2,3-dihydrofuro[3,2-b]pyridin-6-yl)ethyl)piperazin-1-yl)-1,3,4-thiadiazol-2-yl)acetamide], the IC50 was 200 to 1000 nM.

For `CC(=O)Nc1nnc(N2CCN(C(C)c3ccc4c(c3)O[C@H](C)C4)CC2)s1` (single isomer, unassigned) [Example 11], the IC50 fell in the range of 200 to 1000 nM.

With `CC(=O)Nc1nnc(N2CCN(C(C)c3ccc4c(c3)O[C@H](C)C4)CC2)s1` (single isomer, unassigned) [Example 12], the IC50 was below 50 nM.

`CC(c1ccc2c(c1)O[C@H](C)C2)N1CCN(c2ncc3c(n2)CCNC3=O)CC1` (single isomer, unassigned) [Example 13, 2-(4-((S)-1-((R)-2-methyl-2,3-dihydrobenzofuran-6-yl)ethyl)piperazin-1-yl)-7,8-dihydropyrido[4,3-d]pyrimidin-5(6H)-one or 2-(4-((R)-1-((R)-2-methyl-2,3-dihydrobenzofuran-6-yl)ethyl)piperazin-1-yl)-7,8-dihydropyrido[4,3-d]pyrimidin-5(6H)-one]: the IC50 is below 50 nM.

Take `CC(=O)Nc1nnc(N2CCN(C(C)c3ccc4c(c3)O[C@@H](C)C4)CC2)s1` (single isomer, unassigned) [Example 16]: the IC50 fell in the range of 200 to 1000 nM.

Regarding `CC(=O)Nc1nnc(N2CCN(C(C)c3ccc4c(c3)O[C@@H](C)C4)CC2)s1` (single isomer, unassigned) [Example 17], the IC50 was 50 to 200 nM.

Consider `CC(c1ccc2c(c1)O[C@@H](C)C2)N1CCN(c2ncc3c(n2)CCNC3=O)CC1` (single isomer, unassigned) [Example 18, 2-(4-((S)-1-((S)-2-methyl-2,3-dihydrobenzofuran-6-yl)ethyl)piperazin-1-yl)-7,8-dihydropyrido[4,3-d]pyrimidin-5(6H)-one or 2-(4-((R)-1-((S)-2-methyl-2,3-dihydrobenzofuran-6-yl)ethyl)piperazin-1-yl)-7,8-dihydropyrido[4,3-d]pyrimidin-5(6H)-one], for which the IC50 fell in the range of 50 to 200 nM.

Take `CC(=O)Nc1nnc(N2CCN(C(C)c3ccc4c(c3)O[C@H](C)C4)CC2)s1` (stereo partly drawn) [Example 9, N-(5-(4-(1-((R)-2-methyl-2,3-dihydrobenzofuran-6-yl)ethyl)piperazin-1-yl)-1,3,4-thiadiazol-2-yl)acetamide]: the IC50 is below 50 nM.

With `CC(c1ccc2c(c1)O[C@H](C)C2)N1CCN(c2ncc3c(n2)CCNC3=O)CC1` (stereo partly drawn) [Example 10, 2-(4-(1-((R)-2-methyl-2,3-dihydrobenzofuran-6-yl)ethyl)piperazin-1-yl)-7,8-dihydropyrido[4,3-d]pyrimidin-5(6H)-one], the IC50 was below 50 nM.

`CC(=O)Nc1nnc(N2CCN(C(C)c3ccc4c(c3)O[C@@H](C)C4)CC2)s1` (stereo partly drawn) [Example 14, N-(5-(4-(1-((S)-2-methyl-2,3-dihydrobenzofuran-6-yl)ethyl)piperazin-1-yl)-1,3,4-thiadiazol-2-yl)acetamide]: the IC50 fell in the range of 200 to 1000 nM.

On to `CC(c1ccc2c(c1)O[C@@H](C)C2)N1CCN(c2ncc3c(n2)CCNC3=O)CC1` (stereo partly drawn) [Example 15, 2-(4-(1-((S)-2-methyl-2,3-dihydrobenzofuran-6-yl)ethyl)piperazin-1-yl)-7,8-dihydropyrido[4,3-d]pyrimidin-5(6H)-one], for which the IC50 lay in the range of 200 to 1000 nM.

As for `CC(c1ccc2c(c1)O[C@H](C)C2)N1CCN(c2ncc(S(C)(=O)=O)cn2)CC1` (stereo partly drawn) [Example 19, 2-(4-(1-((R)-2-methyl-2,3-dihydrobenzofuran-6-yl)ethyl)piperazin-1-yl)-5-(methylsulfonyl)pyrimidine], the IC50 is below 50 nM.

Consider `CC(c1ccc2c(c1)O[C@H](C)C2)N1CCN(c2ncc(S(C)(=N)=O)cn2)CC1` (stereo partly drawn) [Example 20, imino(methyl)(2-(4-(1-((R)-2-methyl-2,3-dihydrobenzofuran-6-yl)ethyl)piperazin-1-yl)pyrimidin-5-yl)-λ^6-sulfanone], for which the IC50 was below 50 nM.

Regarding `CC(c1ccc2c(c1)O[C@H](C)C2)N1CCN(c2n[nH]c(=O)s2)CC1` (stereo partly drawn) [Example 21, 5-(4-(1-((R)-2-methyl-2,3-dihydrobenzofuran-6-yl)ethyl)piperazin-1-yl)-1,3,4-thiadiazol-2(3H)-one], the half-maximal inhibitory concentration (IC50) fell in the range of 50 to 200 nM.
